Data as given in patent US20150141411A1, “SUBSTITUTED 3,4-DIHYDRO-2H-PYRIDO[1,2-A]PYRAZINE-1,6-DIONE DERIVATIVES USEFUL FOR THE TREATMENT OF (INTER ALIA) ALZHEIMER'S DISEASE” (Janssen Pharmaceuticals, Inc., priority 2012, published 2015).

Assays:
Aβ42 = experiment: In vivo efficacy: brain soluble Aβ42 in non-transgenic rodents (MSD electrochemiluminescence multiplex); parameters: species or system mouse; conditions: dose 30 mg/kg oral dosing, brain soluble fraction, animals sacrificed after 4 h; for response vs control in vivo at 30 mg/kg: Mus musculus, po, 4 h, untreated animals (Ctrl) set at 100, read-out: Aβ42 (% vs Ctrl)_Mean
Source text: (§1) To determine whether acute administration of an Aβ42 lowering agent would reduce Aβ42 levels in vivo, non-transgenic rodents, e.g. mice or rats were used. Animals treated with the Aβ42 lowering agent were examined and compared to those untreated or treated with vehicle and brain levels of soluble Aβ42, Aβ40, Aβ38, and Aβ37 were quantitated by Meso Scale Discovery's (MSD) electrochemiluminescence detection technology. Treatment periods varied from hours (h) to days and were adjusted based on the results of the Aβ42 lowering once a time course of onset of effect could be established.
(§2) A typical protocol for measuring Aβ42 lowering in vivo is shown but it is only one of many variations that could be used to optimize the levels of detectable Aβ. For example, Aβ42 lowering compounds were formulated in 20% of Captisol® (a sulfo-butyl ether of β-cyclodextrin) in water or 20% hydroxypropyl βcyclodextrin. The Aβ42 lowering agents were administered as a single oral dose or by any acceptable route of administration to overnight fasted animals. After 4 h, the animals were sacrificed and Aβ42 levels were analysed.
(§3) Blood was collected by decapitation and exsanguinations in EDTA-treated collection tubes. Blood was centrifuged at 1900 g for 10 minutes (min) at 4° C. and the plasma recovered and flash frozen for later analysis. The brain was removed from the cranium and hindbrain. The cerebellum was removed and the left and right hemisphere were separated. The left hemisphere was stored at −18° C. for quantitative analysis of test compound levels. The right hemisphere was rinsed with phosphate-buffered saline (PBS) buffer and immediately frozen on dry ice and stored at −80° C. until homogenization for biochemical assays.
(§4) Mouse brains from non-transgenic animals were resuspended in 8 volumes of 0.4% DEA (diethylamine)/50 mM NaCl containing protease inhibitors (Roche-11873580001 or 04693159001) per gram of tissue, e.g. for 0.158 g brain, add 1.264 ml of 0.4% DEA. All samples were homogenized in the FastPrep-24 system (MP Biomedicals) using lysing matrix D (MPBio #6913-100) at 6 m/s for 20 seconds. Homogenates were centrifuged at 20800×g for 5 min and supernatants collected. Supernatants were centrifuged at 221.300×g for 50 min. The resulting high speed supernatants were then transferred to fresh eppendorf tubes. Nine parts of supernatant were neutralized with 1 part 0.5 M Tris-HCl pH 6.8 and used to quantify Aβ.
(§5) To quantify the amount of Aβ42, Aβ40, Aβ38, and Aβ37 in the soluble fraction of the brain homogenates, simultaneous specific detection of Aβ42, Aβ40, Aβ38, and Aβ37 was performed using MSD's electro-chemiluminescence multiplex detection technology. In this assay purified monoclonal antibodies specific for Abeta37 (JRD/Aβ37/3), Abeta38 (J&JPRD/Aβ38/5), Abeta40 (JRF/cAβ40/28), and Abeta42 (JRF/cAβ42/26) were coated on MSD 4-plex plates. Briefly, the standards (a dilution of synthetic Aβ42, Aβ40, Aβ38, and Aβ37) were prepared in 1.5 ml Eppendorf tube in Ultraculture, with final concentrations ranging from 10000 to 0.3 pg/m. The samples and standards were co-incubated with Sulfo-tag labelled JRF/rAβ/2 antibody to the N-terminus of Aβ as detector antibody. 50 μl of conjugate/sample or conjugate/standards mixtures were then added to the antibody-coated plate. The plate was allowed to incubate overnight at 4° C. in order to allow formation of the antibody-amyloid complex. Following this incubation and subsequent wash steps the assay was finished by adding read buffer according to the manufacturer's instructions (Meso Scale Discovery, Gaitherburg, Md.).
(§6) The SULFO-TAG emits light upon electrochemical stimulation initiated at the electrode. MSD Sector instrument SI6000 was used for signal read-out.
In this model a Aβ42 lowering compared to untreated animals would be advantageous, in particular a Aβ42 lowering with at least 10%, more in particular a Aβ42 lowering with at least 20%. […]

Aβ40 = experiment: In vivo efficacy: brain soluble Aβ40 in non-transgenic rodents (MSD electrochemiluminescence multiplex); parameters: species or system mouse; conditions: dose 30 mg/kg oral dosing, brain soluble fraction, animals sacrificed after 4 h; for response vs control in vivo at 30 mg/kg: Mus musculus, po, 4 h, untreated animals (Ctrl) set at 100, read-out: Aβ40 (% vs Ctrl)_Mean; for Aβ40 (% vs Ctrl)_Mean: untreated animals (Ctrl) set at 100, 30 mg/kg
Source text: as §1, §2, §3, §4, §5, §6
The results are shown in Table 5 (dose 30 mg/kg oral dosing) (value for untreated animals as control (Ctrl) was set at 100): […]

| Compound | response vs control in vivo at 30 mg/kg (Aβ42) | response vs control in vivo at 30 mg/kg (Aβ40) | melting point | Aβ40 (% vs Ctrl)_Mean (Aβ40) | Aβ42 (% vs Ctrl)_Mean (Aβ42; untreated animals (Ctrl) set at 100, 30 mg/kg) |
| --- | --- | --- | --- | --- | --- |
| Cc1cn(-c2ccc3n(c2=O)C[C@@H](C)N(Cc2cc(N4CCOC(C(F)(F)F)C4)cc(C(F)(F)F)c2)C3=O)cn1 (mixture of isomers) [compound 153] | 100% | 128% |  |  |  |
| Cc1cn(-c2ccc3n(c2=O)CCN(C(C)c2cccc(Cl)c2Cl)C3=O)cn1 (single isomer, unassigned) [10a] |  |  | 203.8 °C |  |  |
| Cc1cn(-c2ccc3n(c2=O)CC(C)N(C(C)c2cc(C(F)(F)F)cc(C(F)(F)F)c2)C3=O)cn1.Cl (single isomer, unassigned) [compound 111] | 35% |  | 147.3 °C | 52 % vs Ctrl |  |
| Cc1cn(-c2ccc3n(c2=O)CC(C)N(C(C)c2cc(C(F)(F)F)cc(C(F)(F)F)c2)C3=O)cn1.Cl (single isomer, unassigned) [compound 112] |  |  | 259 °C | 82 % vs Ctrl | 55 % vs Ctrl |
| CCC(c1cc(OC)cc(C(F)(F)F)c1)N1C(=O)c2ccc(-n3cnc(C)c3)c(=O)n2C[C@H]1C (single isomer, unassigned) [compound 141] | 85% | 122% |  |  |  |
| CCOc1cc(C(C)N2C(=O)c3ccc(-n4cnc(C)c4)c(=O)n3C[C@H]2C)cc(C(F)(F)F)c1 (single isomer, unassigned) [compound 143] | 123% | 129% |  |  |  |
| Cc1cn(-c2ccc3n(c2=O)CCN(C(C)c2c[nH]c4cc(F)c(Cl)cc24)C3=O)cn1 (single isomer, unassigned) [compound 183] | 97% | 133% |  |  |  |
| Cc1cn(-c2ccc3n(c2=O)CCN(C(C)c2cn(C)c4cc(F)c(Cl)cc24)C3=O)cn1 (single isomer, unassigned) [compound 185] | 68% | 89% | 258 °C |  |  |
| Cc1cn(-c2ccc3n(c2=O)CC(C)N(C(C)c2cn(C)c4cc(F)c(Cl)cc24)C3=O)cn1 (single isomer, unassigned) [compound 189] | 116% | 118% | 263 °C |  |  |
| CCn1cc(C(C)N2C(=O)c3ccc(-n4cnc(C)c4)c(=O)n3CC2C)c2cc(Cl)c(F)cc21 (single isomer, unassigned) [compound 192] | 39% | 44% |  |  |  |
| Cc1cn(-c2ccc3n(c2=O)CC(C)N(C(C)c2cn(C(C)C)c4cc(F)c(Cl)cc24)C3=O)cn1 (single isomer, unassigned) [compound 194] | 39% | 43% |  |  |  |
| Cc1cn(-c2ccc3n(c2=O)CC(C)N(C(C)c2c[nH]c4c(F)cc(Cl)cc24)C3=O)cn1 (single isomer, unassigned) [compound 219] | 76% | 95% | 263 °C |  |  |
| CCC1Cn2c(ccc(-n3cnc(C)c3)c2=O)C(=O)N1Cc1cc(C(F)(F)F)cc(C(F)(F)F)c1.Cl (stereo not shown) [compound 1] |  |  | 203.6 °C |  |  |
| Cc1cn(-c2ccc3n(c2=O)C[C@@H](C)N(Cc2ccc(Cl)c(Cl)c2)C3=O)cn1 [compound 2] |  |  | 185 °C |  |  |
| Cc1cn(-c2ccc3n(c2=O)CC(C)N(Cc2cc(C(F)(F)F)cc(C(F)(F)F)c2)C3=O)cn1 (stereo not shown) [compound 3] | 51% | 85% | 176.6 °C |  |  |
| Cc1cn(-c2ccc3n(c2=O)CCN(Cc2cccc(-c4ccccc4)c2)C3=O)cn1 [compound 5] |  |  | 165.6 °C |  |  |
| Cc1cn(-c2ccc3n(c2=O)CC(C)N(Cc2cc(OCC4CC4)cc(C(F)(F)F)c2)C3=O)cn1.Cl (stereo not shown) [compound 6] | 73% | 108% | 175.4 °C |  |  |
| CCc1cn(-c2ccc3n(c2=O)CC(C)N(Cc2cc(C(F)(F)F)cc(C(F)(F)F)c2)C3=O)cn1.Cl (stereo not shown) [compound 7] |  |  | 290 °C |  |  |

| Compound | response vs control in vivo at 30 mg/kg (Aβ42) | response vs control in vivo at 30 mg/kg (Aβ40) | melting point | Aβ40 (% vs Ctrl)_Mean (Aβ40) | Aβ42 (% vs Ctrl)_Mean (Aβ42; untreated animals (Ctrl) set at 100, 30 mg/kg) |
| --- | --- | --- | --- | --- | --- |
| Cc1cn(-c2ccc3n(c2=O)CCN(Cc2ccccc2C)C3=O)cn1 [compound 22] |  |  | 186.1 °C |  |  |
| Cc1cn(-c2ccc3n(c2=O)C[C@@H](C)N(Cc2ccc(C(F)(F)F)c(C(F)(F)F)c2)C3=O)cn1 [compound 46] |  |  | 145.6 °C |  |  |
| Cc1cn(-c2ccc3n(c2=O)C[C@@H](C)N(CCc2cc(C(F)(F)F)cc(C(F)(F)F)c2)C3=O)cn1 [compound 50] | 99% | 112% |  |  |  |
| Cc1cc(CN2C(=O)c3ccc(-n4cnc(C)c4)c(=O)n3C[C@H]2C)cc(C(F)(F)F)c1 [compound 59] |  |  | 167.7 °C |  |  |
| Cc1cn(-c2ccc3n(c2=O)C[C@@H](C)N(Cc2cc(Cl)cc(C(F)(F)F)c2)C3=O)cn1 [compound 63] |  |  | 180.4 °C |  |  |
| Cc1cn(-c2ccc3n(c2=O)CCN(Cc2ccc(Cl)c(C(F)(F)F)c2)C3=O)cn1 [compound 65] |  |  | 195.1 °C |  |  |
| Cc1cn(-c2ccc3n(c2=O)C[C@@H](C)N(Cc2cc(N4CCC(C)CC4)ccc2Cl)C3=O)cn1 [compound 80] | 148% | 164% |  |  |  |
| Cc1cn(-c2ccc3n(c2=O)C[C@@H](C)N(Cc2cc(N4CCCC4)ccc2Cl)C3=O)cn1 [compound 82] | 103% | 125% |  |  |  |
| Cc1cn(-c2ccc3n(c2=O)C[C@@H](C)N(Cc2cc(CC4CC4)cc(C(F)(F)F)c2)C3=O)cn1 [compound 110] | 88% | 103% |  |  |  |
| Cc1cn(-c2ccc3n(c2=O)C[C@@H](C)N(Cc2cc(C4CC4)cc(C(F)(F)F)c2)C3=O)cn1 [compound 116] | 75% | 105% |  |  |  |
| Cc1cn(-c2ccc3n(c2=O)C[C@@H](C)N(Cc2cc(OC(C)C)nc(C(F)(F)F)c2)C3=O)cn1 [compound 128] | 60% | 116% |  |  |  |
| COc1cccc(CN2C(=O)c3ccc(-n4cnc(C)c4)c(=O)n3C[C@H]2C)c1 [compound 132] | 104% | 121% |  |  |  |
| Cc1cn(-c2ccc3n(c2=O)C[C@@H](C)N(Cc2cc(CC(F)(F)F)cc(C(F)(F)F)c2)C3=O)cn1 [compound 134] | 97% | 115% |  |  |  |
| Cc1cn(-c2ccc3n(c2=O)C[C@@H](C)N(Cc2cc(OC(F)(F)F)cc(C(F)(F)F)c2)C3=O)cn1 [compound 140] | 42% | 71% |  |  |  |
| Cc1cn(-c2ccc3n(c2=O)C[C@@H](C)N(Cc2cc(Br)cc(C(F)(F)F)c2)C3=O)cn1 [compound 145] | 71% | 92% |  |  |  |
| Cc1cn(-c2ccc3n(c2=O)C[C@@H](C)N(Cc2cc(OCC(F)(F)F)cc(C(F)(F)F)c2)C3=O)cn1 [compound 166] | 64% | 107% |  |  |  |
| Cc1cn(-c2ccc3n(c2=O)C[C@@H](C)N(Cc2c[nH]c4cc(F)c(Cl)cc24)C3=O)cn1 [compound 195] | 105% | 135% |  |  |  |
